# Assay results as given in ChEMBL document CHEMBL1671734, “An ertapenem-resistant extended-spectrum-beta-lactamase-producing Klebsiella pneumoniae clone carries a novel OmpK36 porin variant” (2010).
# What was measured:
# Format in all cases: functional
# Klebsiella pneumoniae [1] = assay: Antimicrobial activity against ESBL-positive Klebsiella pneumoniae 19039 harboring porin OmpK36V mutant gene by Etest
# Klebsiella pneumoniae [2] = assay: Antimicrobial activity against ESBL-positive Klebsiella pneumoniae 25008 by Etest
# Klebsiella pneumoniae [3] = assay: Antimicrobial activity against ESBL-positive Klebsiella pneumoniae 50748 harboring porin OmpK36 gene by Etest
# Klebsiella pneumoniae [4] = assay: Antimicrobial activity against ESBL-negative Klebsiella pneumoniae 299332 harboring porin OmpK36 gene by Etest
# Klebsiella pneumoniae [5] = assay: Antimicrobial activity against ESBL-positive Klebsiella pneumoniae 69036 harboring porin OmpK36V mutant gene by Etest
# Klebsiella pneumoniae [6] = assay: Antimicrobial activity against ESBL-positive Klebsiella pneumoniae 17049 harboring porin OmpK36V mutant gene by Etest
# Klebsiella pneumoniae [7] = assay: Antimicrobial activity against ESBL-positive Klebsiella pneumoniae 29830 harboring porin OmpK36V mutant gene by Etest
# Klebsiella pneumoniae [8] = assay: Antimicrobial activity against ESBL-positive Klebsiella pneumoniae 11932 harboring porin OmpK36 gene by Etest
# Klebsiella pneumoniae [9] = assay: Antimicrobial activity against ESBL-positive Klebsiella pneumoniae 17829 by Etest
# Klebsiella pneumoniae [10] = assay: Antimicrobial activity against ESBL-positive Klebsiella pneumoniae 71697 harboring porin OmpK36V mutant gene by Etest
# Klebsiella pneumoniae [11] = assay: Antimicrobial activity against ESBL-negative Klebsiella pneumoniae 30018 harboring porin OmpK35 gene by Etest
# Klebsiella pneumoniae [12] = assay: Antimicrobial activity against ESBL-positive Klebsiella pneumoniae 16830 harboring porin OmpK36 gene by Etest
# Klebsiella pneumoniae [13] = assay: Antimicrobial activity against ESBL-positive Klebsiella pneumoniae 18260 harboring pSHA2-encoded porin OmpK36 gene by Etest
# Klebsiella pneumoniae [14] = assay: Antimicrobial activity against ESBL-positive Klebsiella pneumoniae 17829 harboring pSHA2-encoded porin OmpK36 gene by Etest
# Klebsiella pneumoniae [15] = assay: Antimicrobial activity against ESBL-positive Klebsiella pneumoniae 26077 harboring porin OmpK36V mutant gene by Etest
# Klebsiella pneumoniae [16] = assay: Antimicrobial activity against ESBL-positive Klebsiella pneumoniae 17830 harboring porin OmpK36V mutant gene by Etest
# Klebsiella pneumoniae [17] = assay: Antimicrobial activity against ESBL-positive Klebsiella pneumoniae 17834 harboring porin OmpK36V mutant gene by Etest
# Klebsiella pneumoniae [18] = assay: Antimicrobial activity against ESBL-positive Klebsiella pneumoniae 287942 harboring porin OmpK36 gene by Etest
# Klebsiella pneumoniae [19] = assay: Antimicrobial activity against ESBL-positive Klebsiella pneumoniae 18260 by Etest
# Klebsiella pneumoniae [20] = assay: Antimicrobial activity against ESBL-positive Klebsiella pneumoniae 18567 harboring porin OmpK36V mutant gene by Etest
# Klebsiella pneumoniae [21] = assay: Antimicrobial activity against ESBL-positive Klebsiella pneumoniae 29459 harboring porin OmpK36 gene by Etest
# Klebsiella pneumoniae [22] = assay: Antimicrobial activity against ESBL-positive Klebsiella pneumoniae 69928 harboring porin OmpK36V mutant gene by Etest
# Klebsiella pneumoniae [23] = assay: Antimicrobial activity against ESBL-positive Klebsiella pneumoniae 18918 harboring porin OmpK36V mutant gene by Etest
# Klebsiella pneumoniae [24] = assay: Antimicrobial activity against ESBL-positive Klebsiella pneumoniae 6267 harboring porin OmpK36V mutant gene by Etest
# Klebsiella pneumoniae [25] = assay: Antimicrobial activity against ESBL-positive Klebsiella pneumoniae 16855 harboring porin OmpK36 and OmpK35 genes by Etest
# Klebsiella pneumoniae [26] = assay: Antimicrobial activity against ESBL-positive Klebsiella pneumoniae 31750 harboring porin OmpK36 gene by Etest
SMILES,MIC (Klebsiella pneumoniae [1]),MIC (Klebsiella pneumoniae [2]),MIC (Klebsiella pneumoniae [3]),MIC (Klebsiella pneumoniae [4]),MIC (Klebsiella pneumoniae [5]),MIC (Klebsiella pneumoniae [6]),MIC (Klebsiella pneumoniae [7]),MIC (Klebsiella pneumoniae [8]),MIC (Klebsiella pneumoniae [9]),MIC (Klebsiella pneumoniae [10]),MIC (Klebsiella pneumoniae [11]),MIC (Klebsiella pneumoniae [12]),MIC (Klebsiella pneumoniae [15]),MIC (Klebsiella pneumoniae [16]),MIC (Klebsiella pneumoniae [17]),MIC (Klebsiella pneumoniae [19]),MIC (Klebsiella pneumoniae [20]),MIC (Klebsiella pneumoniae [21]),MIC (Klebsiella pneumoniae [22]),MIC (Klebsiella pneumoniae [23]),also measured
C[C@H]1[C@H](NC(=O)/C(=N\OC(C)(C)C(=O)O)c2csc(N)n2)C(=O)N1S(=O)(=O)O [AZTREONAM],> 256 µg/mL,> 256 µg/mL,> 256 µg/mL,0.25 µg/mL,> 256 µg/mL,> 256 µg/mL,> 256 µg/mL,> 256 µg/mL,> 256 µg/mL,> 256 µg/mL,0.064 µg/mL,> 256 µg/mL,> 256 µg/mL,> 256 µg/mL,> 256 µg/mL,> 256 µg/mL,> 256 µg/mL,> 256 µg/mL,> 256 µg/mL,> 256 µg/mL,MIC (Klebsiella pneumoniae [13]): > 256 µg/mL; MIC (Klebsiella pneumoniae [14]): > 256 µg/mL; MIC (Klebsiella pneumoniae [18]): > 256 µg/mL
CO/N=C(\C(=O)N[C@@H]1C(=O)N2C(C(=O)[O-])=C(C[N+]3(C)CCCC3)CS[C@H]12)c1csc(N)n1 [CEFEPIME],> 256 µg/mL,> 256 µg/mL,48 µg/mL,,> 256 µg/mL,> 256 µg/mL,> 256 µg/mL,48 µg/mL,> 256 µg/mL,> 256 µg/mL,0.047 µg/mL,,> 256 µg/mL,> 256 µg/mL,> 256 µg/mL,> 256 µg/mL,> 256 µg/mL,96 µg/mL,> 256 µg/mL,> 256 µg/mL,MIC (Klebsiella pneumoniae [24]): > 256 µg/mL
CO/N=C(\C(=O)N[C@@H]1C(=O)N2C(C(=O)O)=C(COC(C)=O)CS[C@H]12)c1csc(N)n1 [CEFOTAXIME],> 32 µg/mL,> 32 µg/mL,> 32 µg/mL,0.125 µg/mL,> 32 µg/mL,> 32 µg/mL,> 32 µg/mL,> 32 µg/mL,> 32 µg/mL,> 32 µg/mL,0.094 µg/mL,> 32 µg/mL,> 32 µg/mL,> 32 µg/mL,> 32 µg/mL,> 32 µg/mL,> 32 µg/mL,> 32 µg/mL,> 32 µg/mL,> 32 µg/mL,MIC (Klebsiella pneumoniae [25]): > 32 µg/mL; MIC (Klebsiella pneumoniae [26]): > 32 µg/mL; MIC (Klebsiella pneumoniae [24]): > 32 µg/mL; MIC (Klebsiella pneumoniae [18]): > 32 µg/mL
CO[C@@]1(NC(=O)Cc2cccs2)C(=O)N2C(C(=O)O)=C(COC(N)=O)CS[C@@H]21 [CEFOXITIN],> 256 µg/mL,64 µg/mL,6 µg/mL,4 µg/mL,128 µg/mL,> 256 µg/mL,128 µg/mL,6 µg/mL,> 256 µg/mL,128 µg/mL,3 µg/mL,3 µg/mL,128 µg/mL,96 µg/mL,96 µg/mL,> 256 µg/mL,> 256 µg/mL,6 µg/mL,48 µg/mL,> 256 µg/mL,MIC (Klebsiella pneumoniae [25]): 24 µg/mL; MIC (Klebsiella pneumoniae [26]): 3 µg/mL; MIC (Klebsiella pneumoniae [13]): 256 µg/mL; MIC (Klebsiella pneumoniae [14]): 256 µg/mL; MIC (Klebsiella pneumoniae [24]): 32 µg/mL; MIC (Klebsiella pneumoniae [18]): 4 µg/mL
